Values quoted from earlier work, collected in US20070041998A1, “Use of alum and a th1 immune response inducing adjuvant for enhancing immune responses” (Intercell AG, priority 2003, published 2007).
Where no end group is shown, it is not given here.

Assays:
[1] = system: Staphylococcus aureus; conditions: Staphylococcus aureus-infected mice
[2] = system: human neutrophils; conditions: via cell surface calreticulin

Question: Which results are given for “KLKLLLLLKLK-NH2 [synthetic antimicrobial peptide (Nakajima 1997; Cho 1999)]”?
Answer: chemotherapeutic activity [1]: significant chemotherapeutic activity; production of superoxide anion (O2−) [2]: activated to produce the superoxide anion
